Measurements published in patent publication US10105384B2, “Nucleic acids targeting TCTP for use in the treatment of chemo- or hormone-resistant cancers” (INSTITUT NATIONAL DE LA SANTE ET DE LA RECHERCHE MEDICALE …, priority 2010, dated 2018).
d = 2'-deoxy (DNA); r = 2'-OH (RNA)

Key:
LNCaP-Hsp27 cells = assay: Crystal violet cell growth assay, LNCaP-Hsp27 cells; type: cell-based, human
Procedure: (§1) In brief, cells were seeded in each well of 12-well microtiter plates (30 000 to 50 000 cells per well) and allowed to attach overnight. To study the effect of TCTP downregulation on apoptosis induced by docetaxel, PC-3 cells were transiently transfected the day after seeding with 5 nM of TCTP siRNA for 48 h or 100 nM of TCTP ASO for 72 h. Cells were then treated with 50 nM of docetaxel and MTT assays were performed after 24 h. To assess the effect of TCTP downregulation on Hsp27 cytoprotection, LNCaP-Mock and -Hsp27 cells were transiently transfected the day after seeding with 5 nM of TCTP siRNA for 48 h. The down- or upregulation of TCTP effect on LNCaP and C4-2 cell viability was realized after transient transfections with 100 nM of TCTP ASO or 0.02 μg/μl of pDEST-TCTP for 72 h and 48 h respectively. Cells were then treated with 1 nM of docetaxel in serum-free media (mimics androgen withdrawal in vitro) and crystal violet assays were performed the day after. Each assay was performed in triplicate.
To study the functional role of TCTP in CRPC, siRNA-induced inhibition of TCTP expression was used to determine whether the reduction of TCTP expression affects LNCaP-Mock and -Hsp27 cell growth after combined androgen withdrawal and docetaxel-chemotherapy treatment in vitro.
In order to study consequences of TCTP inhibition on cell survival after combined androgen withdrawal and docetaxel-chemotherapy treatment, cell viability of LNCaP-Mock and -Hsp27 was determined using crystal violet dye after 24 h treatment with 1 nM of docetaxel in serum-free media (mimics androgen withdrawal in vitro). […] After TCTP siRNA plus docetaxel in serum-free medium treatment (mimics androgen withdrawal in vitro), we found an 80% (**, P≤0.01) reduction in LNCaP-Hsp27 cell growth rate versus a 50% (**, P≤0.01) reduction in LNCaP-Mock compared to control.

LNCaP tumors = assay: LNCaP tumor growth in vivo after castration in athymic nude mice
Procedure: (§2) Approximately 3.10^6 PC-3 cells and 10.10^6 LNCaP cells were inoculated subcutaneously with 0.1 mL of Dulbecco's Modified Eagle's Medium (Invitrogen) supplemented with 10% FCS for PC-3 or with 0.1 mL of Matrigel (BD Biosciences Discovery Labware) for LNCaP in the flank region of 4-week-old male athymic nude mice (Charles River, L'Arbresle, France) via a 23-gauge needle. When PC-3 tumors reached 50 mm^3, usually 3 to 4 weeks after injection, mice were randomly selected for treatment with TCTP ASO alone, scrambled ASO alone, TCTP ASO plus docetaxel or scrambled ASO plus docetaxel. Mice bearing LNCaP tumors between 200 and 300 mm^3 in volume were castrated via scrotal approach and randomly assigned to a treatment arm. Mice were treated beginning 1 week after castration with TCTP ASO or control ASO alone and serum PSA measurements were done weekly. For both experiments, each experimental group consisted in 10 mice and the tumor volume measurements were performed once weekly and calculated by the formula length×width×depth×0.5236 (Gleave et al., 1999, Clin Cancer Res 5:2891-8). After randomization, 10 mg/kg TCTP or scrambled ASO was injected intraperitoneally (i.p) once daily for 60 days for ASO monotherapy groups and 90 days for the ASO plus docetaxel groups. A total of 35 mg/kg docetaxel was administrated i.p. three times per week from days 7 to 14. Tumor volume measurements were performed once weekly and calculated by the formula length×width×depth×0.5236 (20). Data points were expressed as average tumor volume levels +/−standard error (SE). All animal procedures were performed in accordance with protocols approved by French laws and the European directives and with appropriate institutional certification.
Twenty male mice bearing LNCaP tumors were castrated 6 to 8 weeks after tumor implantation and were randomly selected for treatment with TCTP ASO of SEQ ID NO: 2 versus control ASO. Castration was done when tumors reached a mean of 200 mm3. Mean tumor volume and PSA were similar in both groups at the beginning of the treatment. Beginning 1 week after castration, 10 mg/kg of ASO was administered once daily by i.p. injection for 9 weeks. […] At sacrifice, tumor volume was 4-fold higher in control (1650, 15±281, 76 mm^3) compared with the TCTP ASO-treated group (397, 79±132, 61 mm^3; *, P≤0.05).

C4-2 cells = assay: Crystal violet cell growth assay, C4-2 cells; type: cell-based, human
Procedure: as §1
(§3) Finally, in order to assess if TCTP ASO has the same effect on prostatic cancer cell lines expressing the androgen receptor (AR), crystal violet dye was used to examin LNCaP and C4-2 cell growth. LNCaP and C4-2 were treated with 100 nM TCTP or control ASO (FIGS. 15 A and B) for 2 days. Then, LNCaP and C4-2 cells were incubated with 1 nM of docetaxel in serum-free media.

PC-3 tumors = assay: PC-3 tumor growth in vivo in athymic nude mice
Procedure: as §2
We next evaluated the effects of TCTP ASO treatment on the growth of PC-3 tumors in vivo (FIG. 8). Male nude mice bearing PC-3 tumors (50 mm^3) were randomly selected for TCTP ASO versus scrambled ASO and 10 mg/kg ASO were administrated once daily by i.p. injection for […]. From days 7 to 14, 30 mg/kg of docetaxel was administrated i.p. 3 days in the week. Mean tumor volume was similar in all groups before therapy.
TCTP inhibition was evaluated in nude mice xenografted with the PC3 CRPC cell line. The animals were treated in an everyday basis and for a period of two months by peritoneal injection of ASO or control TCTP once their tumor volume was 200-300 mm^3. In order to evaluate the additive anticancer activity of ASO TCTP, mice were treated with docetaxel (33 mg/kg) by peritoneal injection three times per week for one week prior to ASO or control TCTP injections. For all experiments, the average tumor volume was measured once a week.

LNCaP cells = assay: Crystal violet cell growth assay, LNCaP cells; type: cell-based, human
Procedure: as §1, §3

“5′-AACCCGUCCGCGAUCUCCCdGdG-3′ (AACCCGUCCGCGAUCUCCCGG; siRNA; sugars from the 5' end r19 d2, backbone not given here) [TCTP siRNA, from Qiagen]” was tested, and the “cytoprotection to androgen withdrawal and docetaxel conferred by Hsp27 overexpression” value (LNCaP-Hsp27 cells; siRNA 5 nM) was “reversed the cytoprotection”, the “reduction in LNCaP-Hsp27 cell growth rate” value (LNCaP-Hsp27 cells; siRNA 5 nM alone, compared with control) was 50% and the “reduction in LNCaP-Hsp27 cell growth rate” value (LNCaP-Hsp27 cells; siRNA plus 1 nM docetaxel in serum-free medium, 24 h) was 80%.

“5′-ACCAATGAGCGAGTCATCAA-3′ (phosphorothioate backbone, further chemistry not given here) [ASO10]” was tested, and the “LNCaP tumor volume increase compared with control ASO” value (LNCaP tumors; 9 weeks after castration) was “increased more slowly”, the “harvested tumors smaller in appearance” value (LNCaP tumors; after 9 weeks of TCTP ASO monotherapy) was “¾” and the “tumor volume in control compared with the TCTP ASO-treated group” value (LNCaP tumors; at sacrifice) was 4 fold. The “side effects (animal behavior, body weight)” value (LNCaP tumors; castrated mice bearing LNCaP tumors, 9 weeks) was “No side effects”, the C4-2 cell growth (C4-2 cells; 100 nM ASO for 2 days) was “considerably decrease” and the “sensitivity to docetaxel and androgen withdrawal” value (C4-2 cells; C4-2, 100 nM ASO 2 days then 1 nM docetaxel in serum-free media) was “enhance treatments (docetaxel and androgen withdrawal) sensitivity”. The tumor volume (PC-3 tumors; PC3 xenografted nude mice, 10th week of treatment) was 500 mm^3, the tumor volume maintained (PC-3 tumors; PC3 xenografted nude mice, docetaxel (33 mg/kg) followed by ASO TCTP) was 100 mm^3 and the “reduction of mean PC-3 tumor volume” value (PC-3 tumors; TCTP ASO plus docetaxel vs scrambled control, 13 weeks after initiation of treatment) was under 70%. For the same substance, the “harvested tumors smaller in appearance” value (PC-3 tumors; after two weeks of i.p. treatment) was 50%, the “general toxicity (animal behavior, body weight)” value (PC-3 tumors; mice bearing PC-3 tumors, body weight t0 vs tf) was “did not cause general toxicity” and the “reduction of PC-3 tumor volume” value (PC-3 tumors; monotherapy 10 mg/kg i.p. once daily, days 56 to 70, vs scrambled control) was 50%. The “cleaved caspase-3 fragments in harvested PC-3 tumors” value (PC-3 tumors; western blotting, i.p. delivery) was “presence of cleaved caspase-3 fragments”, the LNCaP cell growth (LNCaP cells; 100 nM ASO for 2 days) was “considerably decrease” and the “sensitivity to docetaxel and androgen withdrawal” value (LNCaP cells; LNCaP, 100 nM ASO 2 days then 1 nM docetaxel in serum-free media) was “enhance treatments (docetaxel and androgen withdrawal) sensitivity”.
